# Test results taken from PubChem BioAssay AID2060510 (Molecular Pharmacology Branch, DTP, NCI, 2025).
# Several values for one entry are separate records, joined by “and”; a condition that tells them apart may be missing. Equal entries are not always repeated.
# Tested on: 439559-082-T-J2-PDC spheroids viability
# Experiment: Anticancer human tumor 439559-082-T-J2-PDC patient-derived colon adenocarcinoma cell line growth inhibition [GQUAD]
# Details: for viability, T/C: stronger effect = lower value
# Description: DNA G-quadruplex Stabilizer Agents in Combinations in Complex Spheroids
# A high-throughput screen of multi-cell type tumor spheroids was designed to identify active combinations of DNA G-quadruplex stabilizer agents and targeted small molecules. Complex spheroids include a stromal component modeled by human endothelial cells (HUVEC) and fibroblasts modeled by human mesenchymal stem cells (MSCs). The concentration ranges selected for each drug and investigational agent were based upon clinically achievable concentrations if the clinical Cmax of the agent was known.
# Compounds. The drugs and investigational agents: pidnarulex (CX-5461; NSC782164), APTO-253 (NSC789042), BRACO-19 (NSC847499), peposertib (NSC802822), ceralasertib (NSC780249), elimusertib (NSC800525), camonsertib (NSC841442), AZD-1390 (NSC803789), olaparib (NSC753686), talazoparib (NSC767125), ART-558 (NSC835418), sotorasib (NSC818433), MRTX-1133 (NSC836407), SN-38 (NSC673596), topotecan (NSC609699), etoposide (NSC141540), doxorubicin (NSC123127), gemcitabine (NSC613327), 5-fluorouracil (NSC19893), paclitaxel (NSC125973), vemurafenib (NSC761431), panobinostat (NSC761190), R-306465 (JNJ-16241199; NSC773264), adavosertib (NSC754352), TP-3654 (NSC805149), carboplatin (NSC241240), KSQ-4279 (NSC840948), and staurosporine (NSC755774) were obtained from the National Cancer Institute (NCI) Developmental Therapeutics Program Chemical Repository (34). The FDA-approved anticancer drug set is available from the NCI Developmental Therapeutics Program. […] The stock solutions were prepared in dimethyl sulfoxide (DMSO, Sigma-Aldrich, St. Louis, MO, cat. D2650) at 800-fold the tested concentration and stored at -70 degrees C prior to their use. All drugs and investigational agents were tested over a range starting from a high concentration at or near the clinical Cmax and decreasing in half-log increments. If the clinical Cmax for an agent had not been determined, the highest concentration tested was 10 microM.
# 2.3 Cell Culture. All cells were maintained in an incubator at 37 degrees C and 5% CO2 with 95% humidity. The PDC lines were cultured according to standard operating procedures established by the NCI PDMR. All PDCs were thawed and cultured in Matrigel-coated flasks prepared with a working solution of 1X Ham's F-12 nutrient mix, without supplementation (Invitrogen, cat. 11765054), 100 U/mL penicillin-streptomycin (Invitrogen, cat. 15140122), and 2.5% Matrigel (Corning Inc., cat. 354248) for the first three passages. The 857933-349-R-J2-PDC line was cultured in 6C/Colon 1B media, which includes advanced DMEM/F-12 (Thermo Fisher Scientific, cat. 12634028), 10 mM HEPES (Thermo Fisher Scientific, cat. 15630080), 1X GlutaMAX supplement (Thermo Fisher Scientific, cat. 35050061), 0.1 mg/mL primocin (InvivoGen, cat. ant-pm-2), 10% defined fetal bovine serum, heat inactivated (HyClone Laboratories Inc., cat. SH30070.03HI), 50% L-WRN conditioned media (ATCC, cat. CRL-3276), 1.25 mM N-Acetyl-L-cysteine (Sigma-Aldrich, cat. A9165), 10 mM nicotinamide (Sigma-Aldrich, cat. N0636), 1X B-27 supplement (Thermo Fisher Scientific, cat. 17504044), 1X N-2 supplement (Thermo Fisher Scientific, cat. 17502048), 10 microM Y-27632 dihydrochloride (Tocris Bioscience, cat. 1254), and 50 ng/mL human EGF recombinant protein (Thermo Fisher Scientific, cat. PHG0311). The 485176-168-R4-J1-PDC line was cultured in Panc media, which includes all 6C/Colon 1B media components plus 100 ng/mL human FGF-10 (Thermo Fisher Scientific, cat. 100-26), 500 nM SB-431542 (Selleckchem, cat. S1067), and gastrin (Tocris, cat. 3006).
# […]
# [1] = compound alone, run of 04/22/2024
# 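Further: spheroids exposed to the agents for 7 days before readout.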
# 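Wherever viability, T/C is given: percent of luminescence signal in DMSO vehicle wells taken as 100% viability.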
smiles,measurement,setting,value
CN(C)c1ccc(Nc2c3ccc(NC(=O)CCN4CCCC4)cc3nc3cc(NC(=O)CCN4CCCC4)ccc23)cc1,"viability, T/C",compound 0.0316 µM,103% [middle of 12 runs]
same,"viability, T/C",compound 0.1 µM,99.9% [middle of 12 runs]
same,"viability, T/C",compound 0.316 µM,101% [middle of 12 runs]
same,"viability, T/C",compound 3.16 µM,104% [middle of 12 runs]
same,"viability, T/C",compound 10 µM,101% [middle of 12 runs]
same,IC50,[1],> 10 µM
CC(C)n1c(=O)n(C)c2cnc3cc(F)c(-c4ccc(OCCCN5CCCCC5)nc4)cc3c21 + Cc1cnc(CNC(=O)c2c(=O)c3ccc(N4CCCN(C)CC4)nc3n3c2sc2ccccc23)cn1,IC50,"curve of first compound, second compound 0.0316 µM",> 10 µM
same,IC50,"curve of first compound, second compound 0.1 µM",> 10 µM
same,IC50,"curve of first compound, second compound 0.316 µM",> 10 µM
same,IC50,"curve of first compound, second compound 1 µM",> 10 µM
same,IC50,"curve of first compound, second compound 3.16 µM",> 10 µM
same,IC50,"curve of first compound, second compound 10 µM",5.99 µM
same,"viability, T/C","second compound 0.0316 µM, first compound 0.0316 µM",91.2%
same,"viability, T/C","second compound 0.0316 µM, first compound 0.1 µM",77.3%
same,"viability, T/C","second compound 0.0316 µM, first compound 0.316 µM",88.8%
same,"viability, T/C","second compound 0.0316 µM, first compound 1 µM",90.8%
same,"viability, T/C","second compound 0.0316 µM, first compound 3.16 µM",94.2%
same,"viability, T/C","second compound 0.0316 µM, first compound 10 µM",82.6%
same,"viability, T/C","second compound 0.1 µM, first compound 0.0316 µM",77.9%
same,"viability, T/C","second compound 0.1 µM, first compound 0.1 µM",76.1%
same,"viability, T/C","second compound 0.1 µM, first compound 0.316 µM",60.8%
same,"viability, T/C","second compound 0.1 µM, first compound 1 µM",68.2%
same,"viability, T/C","second compound 0.1 µM, first compound 3.16 µM",71%
same,"viability, T/C","second compound 0.1 µM, first compound 10 µM",62.9%
same,"viability, T/C","second compound 0.316 µM, first compound 0.0316 µM",73.3%
same,"viability, T/C","second compound 0.316 µM, first compound 0.1 µM",67.6%
same,"viability, T/C","second compound 0.316 µM, first compound 0.316 µM",59.1%
same,"viability, T/C","second compound 0.316 µM, first compound 1 µM",66.3%
same,"viability, T/C","second compound 0.316 µM, first compound 3.16 µM",71.6%
same,"viability, T/C","second compound 0.316 µM, first compound 10 µM",53%
same,"viability, T/C","second compound 1 µM, first compound 0.0316 µM",71.8%
same,"viability, T/C","second compound 1 µM, first compound 0.1 µM",55.7%
same,"viability, T/C","second compound 1 µM, first compound 0.316 µM",66.7%
same,"viability, T/C","second compound 1 µM, first compound 1 µM",62.4%
same,"viability, T/C","second compound 1 µM, first compound 3.16 µM",62.9%
same,"viability, T/C","second compound 1 µM, first compound 10 µM",42.7%
same,"viability, T/C","second compound 3.16 µM, first compound 0.0316 µM",56.9%
same,"viability, T/C","second compound 3.16 µM, first compound 0.1 µM",60.6%
same,"viability, T/C","second compound 3.16 µM, first compound 0.316 µM",67.6%
same,"viability, T/C","second compound 3.16 µM, first compound 1 µM",60.8%
same,"viability, T/C","second compound 3.16 µM, first compound 3.16 µM",58.1%
same,"viability, T/C","second compound 3.16 µM, first compound 10 µM",46.1%
same,"viability, T/C","second compound 10 µM, first compound 0.0316 µM",59.8%
same,"viability, T/C","second compound 10 µM, first compound 0.1 µM",57.2%
same,"viability, T/C","second compound 10 µM, first compound 0.316 µM",60.3%
same,"viability, T/C","second compound 10 µM, first compound 1 µM",59.2%
same,"viability, T/C","second compound 10 µM, first compound 3.16 µM",58%
same,"viability, T/C","second compound 10 µM, first compound 10 µM",39.8%
Cc1cccc(N(C)C(=O)C2C(O)CCN2c2nc(C)cc(C(F)(F)F)c2C#N)c1 (centres undefined),"viability, T/C",compound 0.0316 µM,93.8% and 107% and 103%
same,"viability, T/C",compound 0.1 µM,105% and 93.7% and 99.7%
same,"viability, T/C",compound 0.316 µM,106% and 102% and 85.8%
same,"viability, T/C",compound 1 µM,109% and 97.2% and 108%
same,"viability, T/C",compound 3.16 µM,116% and 104% and 109%
same,"viability, T/C",compound 10 µM,88.7% and 92.6% and 98.5%
same,IC50,curve of compound,> 10 µM
C=CCn1c(=O)c2cnc(Nc3ccc(N4CCN(C)CC4)cc3)nc2n1-c1cccc(C(C)(C)O)n1,"viability, T/C",compound 0.0316 µM,109% and 94.2% and 108%
same,"viability, T/C",compound 0.1 µM,91.1% and 90.4% and 90.3%
same,"viability, T/C",compound 0.316 µM,86.3% and 89.2% and 88%
same,"viability, T/C",compound 1 µM,104% and 78.4% and 93.7%
same,"viability, T/C",compound 3.16 µM,110% and 62.9% and 53.1%
same,"viability, T/C",compound 10 µM,43.5% and 20.1% and 21.9%
same,IC50,curve of compound,8.76 µM and 4.36 µM and 3.55 µM
C#Cc1c(F)ccc2cc(O)cc(-c3ncc4c(N5CC6CCC(C5)N6)nc(OCC56CCCN5CC(F)C6)nc4c3F)c12 (centres undefined),"viability, T/C",compound 0.0316 µM,96.1% and 98.3% and 86.1%
same,"viability, T/C",compound 0.1 µM,86.3% and 94.2% and 72.7%
same,"viability, T/C",compound 0.316 µM,76.8% and 90.2% and 62.7%
same,"viability, T/C",compound 1 µM,75.4% and 78.3% and 59.6%
same,"viability, T/C",compound 3.16 µM,60.6% and 9.56% and 49.7%
same,"viability, T/C",compound 10 µM,49% and 15.8% and 45.7%
same,IC50,curve of compound,9.82 µM and 1.64 µM and 3.59 µM
Cc1[nH]c2ccc(F)cc2c1-c1nc2c3cccnc3c3ncccc3c2[nH]1,"viability, T/C",compound 0.0316 µM,103% [middle of 12 runs]
same,"viability, T/C",compound 0.1 µM,102% [middle of 12 runs]
same,"viability, T/C",compound 0.316 µM,100% [middle of 12 runs]
same,"viability, T/C",compound 1 µM,94.9% [middle of 12 runs]
same,"viability, T/C",compound 3.16 µM,86.4% [middle of 12 runs]
same,"viability, T/C",compound 10 µM,89.3% [middle of 12 runs]
same,IC50,"compound alone, run of 04/16/2024",> 10 µM
same,IC50,[1],> 10 µM
O=C(c1cc(Cc2n[nH]c(=O)c3ccccc23)ccc1F)N1CCN(C(=O)C2CC2)CC1,"viability, T/C",compound 0.0316 µM,90.9% and 100% and 96.4%
same,"viability, T/C",compound 0.1 µM,103% and 97.7% and 97.9%
same,"viability, T/C",compound 0.316 µM,94.8% and 86.2% and 99.2%
same,"viability, T/C",compound 1 µM,98.9% and 98.6% and 98.4%
same,"viability, T/C",compound 3.16 µM,123% and 104% and 94.1%
same,"viability, T/C",compound 10 µM,91.1% and 89.6% and 94.1%
same,IC50,curve of compound,> 10 µM
